Data reported in US20100120789A1, “Compound” (priority 2005, published 2010).

Structure (SMILES)	melting point [°C]
O=C(CC12CC3CC(CC(C3)C1)C2)N1CCc2sccc2C1	121 to 125
CN(Cc1cccs1)C(=O)C12CC3CC(CC(O)(C3)C1)C2	88 to 91
CN(CCc1ccccn1)C(=O)CC12CC3CC(CC(C3)C1)C2	59 to 60
O=C(CC12CC3CC(CC(C3)C1)C2)NCc1ccc(-c2ccccn2)s1	187 to 188
CN(Cc1cn(C23CC4CC(CC(C4)C2)C3)nn1)Cc1cccs1	66 to 68
O=S(=O)(Cc1cn(C23CC4CC(CC(C4)C2)C3)nn1)c1cc(Cl)ccc1Cl	198 to 199
CN(CC(=O)C12CC3CC(CC(C3)C1)C2)Cc1cccs1.Cl	201 to 203
COc1cc2c(cc1OCc1ccccc1)CCN(C(=O)C13CC4CC(CC(C4)C1)C3)C2	144 to 145
COc1cc2c(cc1OCc1ccccc1)CCN(C(=O)CC13CC4CC(CC(C4)C1)C3)C2	133 to 135
COc1cc2c(cc1O)CCN(C(=O)C13CC4CC(CC(C4)C1)C3)C2	224 to 228
COc1cc2c(cc1O)CCN(C(=O)CC13CC4CC(CC(C4)C1)C3)C2	169 to 172
COc1cc2c(cc1OC)CN(C(=O)C13CC4CC(CC(C4)C1)C3)CC2	151 to 155
COc1cc2c(cc1OC)CN(C(=O)CC13CC4CC(CC(C4)C1)C3)CC2	165 to 167
Cc1nc2cc(NCC(=O)C3(C)CC3)ccc2s1	116 to 120
O=C(NCc1ccc(Cl)cc1)C12CC3CC(CC(C3)C1)C2	150 to 153
Cc1ccc(CNC(=O)C23CC4CC(CC(C4)C2)C3)cc1	137 to 140
O=C(CC12CC3CC(CC(C3)C1)C2)NCc1ccc(Cl)cc1	166 to 168
Cc1ccc(CNC(=O)CC23CC4CC(CC(C4)C2)C3)cc1	139 to 142
CN(Cc1ccc(Cl)cc1)C(=O)CC12CC3CC(CC(C3)C1)C2	75 to 76
CCN(Cc1cccs1)C(=O)C12CC3CC(CC(C3)C1)C2	103 to 105
O=C(N(Cc1cccs1)CC1CCCCC1)C12CC3CC(CC(C3)C1)C2	112 to 115.5
O=C(CC12CC3CC(CC(C3)C1)C2)N1CCN(c2ccccn2)CC1	134 to 136
CC(C)N(Cc1cccs1)C(=O)C12CC3CC(CC(C3)C1)C2	156 to 158
CN(Cc1cccs1)C(=O)CSC12CC3CC(CC(C3)C1)C2	51 to 53
O=C(N1CCN(Cc2ccc(Cl)cc2)CC1)C12CC3CC(CC(C3)C1)C2	141.5 to 143

Structure (SMILES)	melting point [°C]
Cc1cccc(CN2CCN(C(=O)C34CC5CC(CC(C5)C3)C4)CC2)c1	185 to 187
CSc1ccc(CN(C)C(=O)C23CC4CC(CC(C4)C2)C3)s1	73 to 75.5
CN(Cc1cccs1)C(=O)CS(=O)(=O)C12CC3CC(CC(C3)C1)C2	120 to 122
Cc1cccc(NC(=O)CS(=O)(=O)C23CC4CC(CC(C4)C2)C3)n1	126 to 129
CNC(=O)c1ccc(CN(C)C(=O)C23CC4CC(CC(C4)C2)C3)s1	211 to 211.5
Cc1c(C(=O)CSCc2ccc(Cl)cc2)sc2ccc(Cl)cc12	123 to 124
CN(C)C(=O)c1ccc(CN(C)C(=O)C23CC4CC(CC(C4)C2)C3)s1	145 to 146
CC(=O)Nc1ccc([S+]([O-])CC(=O)C23CC4CC(CC(C4)C2)C3)cc1 (stereo not shown)	173.5 to 175.5
Cc1ccc(CNC(=O)C2CCN(C(=O)C34CC5CC(CC(C5)C3)C4)CC2)cc1	155.5 to 157
CC(C)(C)c1ccc(CS(=O)(=O)CC(=O)C23CC4CC(CC(C4)C2)C3)cc1	127.7
Cc1cccc(CS(=O)(=O)CC(=O)C23CC4CC(CC(C4)C2)C3)c1	132.8
COC(=O)c1ccc(OCC(=O)C23CC4CC(CC(C4)C2)C3)cc1	128.7
COC(=O)c1cccc(OCC(=O)C23CC4CC(CC(C4)C2)C3)c1	84.5
O=C(NCc1ccccc1)c1ccc(OCC(=O)C23CC4CC(CC(C4)C2)C3)cc1	145.6
COC(=O)c1ccc(COCC(=O)C23CC4CC(CC(C4)C2)C3)cc1	88.7
O=C(Nc1ccccc1)c1ccc(OCC(=O)C23CC4CC(CC(C4)C2)C3)cc1	184.3
O=C(NCc1ccco1)c1ccc(OCC(=O)C23CC4CC(CC(C4)C2)C3)cc1	162.2
CN(Cc1ccc(Cl)s1)C(=O)CC12CC3CC(CC(C3)C1)C2	73.5 to 75
O=C(CC12CC3CC(CC(C3)C1)C2)N1CCN(C(=O)c2ccco2)CC1	98 to 100
CC(=O)Nc1ccc(OCC(=O)C23CC4CC(CC(C4)C2)C3)cc1Cl	204 to 206
O=C(Cc1ccc(OCC(=O)C23CC4CC(CC(C4)C2)C3)cc1)Nc1ccccc1	153.4
CCCc1ccc(S(=O)(=O)NC23CC4CC(CC(C4)C2)C3)cc1 [STX1341, N-Adamantan-1-yl-4-propyl-benzenesulfonamide]	178 to 178.5
O=S(=O)(NC12CC3CC(CC(C3)C1)C2)c1cc(Cl)ccc1Cl [STX1342, N-Adamantan-1-yl-2,5-dichloro-benzenesulfonamide]	189 to 190
Cc1c(Cl)cccc1S(=O)(=O)NC12CC3CC(CC(C3)C1)C2 [STX1343, N-Adamantan-1-yl-3-chloro-2-methyl-benzenesulfonamide]	197.5 to 198
O=S(=O)(NC12CC3CC(CC(C3)C1)C2)c1ccc(-c2ccccc2)cc1 [STX1344, Biphenyl-4-sulfonic acid adamantan-1-ylamide]	205 to 205.5

Structure (SMILES)	melting point [°C]
CCCc1ccc(S(=O)(=O)NCC23CC4CC(CC(C4)C2)C3)cc1 [STX1368, N-Adamantan-1-ylmethyl-4-propyl-benzenesulfonamide]	148 to 149
O=S(=O)(NCC12CC3CC(CC(C3)C1)C2)c1cc(Cl)ccc1Cl [STX1369, N-Adamantan-1-ylmethyl-2,5-dichloro-benzenesulfonamide]	197 to 198
Cc1c(Cl)cccc1S(=O)(=O)NCC12CC3CC(CC(C3)C1)C2 [STX1370, N-Adamantan-1-ylmethyl-3-chloro-2-methyl-benzenesulfonamide]	183 to 184
O=S(=O)(NCC12CC3CC(CC(C3)C1)C2)c1ccc(-c2ccccc2)cc1 [STX1371, Biphenyl-4-sulfonic acid (adamantan-1-ylmethyl)-amide]	188 to 189.5
Cc1nc2c(NC(=O)C34CC5CC(CC(C5)C3)C4)c(C)ccc2s1 [STX1372, Adamantane-1-carboxylic acid (2,5-dimethyl-benzothiazol-4-yl)-amide]	183.5 to 185
Cc1nc2c(Cl)c(NC(=O)C34CC5CC(CC(C5)C3)C4)ccc2s1 [STX1373, Adamantane-1-carboxylic acid (4-chloro-2-methyl-benzothiazol-5-yl)-amide]	183.5 to 185.5
O=C(NCc1cccs1)C12CC3CC(CC(C3)C1)C2 [STX1374, Adamantane-1-carboxylic acid (thiophen-2-ylmethyl)-amide]	155 to 155.5
O=C(NCCc1cccs1)C12CC3CC(CC(C3)C1)C2 [STX1375, Adamantane-1-carboxylic acid (2-thiophen-2-yl-ethyl)-amide]	123 to 126
O=S(=O)(NC12CC3CC(CC(C3)C1)C2)c1cccs1 [STX1573, Thiophene-2-sulfonic acid adamantan-1-ylamide]	129 to 131
CC(C)(C)CC(=O)NCc1cccs1 [STX1639, 3,3-Dimethyl-N-thiophen-2-ylmethyl-butyramide]	83 to 84
CC(C(=O)NCc1cccs1)(c1ccccc1)c1ccccc1 [STX1640, 2,2-Diphenyl-N-thiophen-2-ylmethyl-propionamide]	90 to 91
CC1(C(=O)NCc2cccs2)CC1 [STX1641, 1-Methyl-cyclopropanecarboxylic acid (thiophen-2-yl methyl)-amide]	70 to 71
CC1(C(=O)NCc2cccs2)CCCCC1 [STX1642, 1-Methyl-cyclohexanecarboxylic acid(thiophen-2-ylmethyl)-amide]	72 to 73
O=C(NCCc1cccs1)C12CC3CC(CC1C3)C2 [STX1656, Hexahydro-2,5-methano-pentalene-3a-carboxylic acid(2-thiophen-2-yl-ethyl)-amide]	113 to 114
CC12CC3CC(C)(C1)CC(C(=O)NCc1cccs1)(C3)C2 [STX1671, 3,5-Dimethyl-adamantane-1-carboxylic acid(thiophen-2-ylmethyl)-amide]	101 to 103
CC12CC3CC(C)(C1)CC(C(=O)NCCc1cccs1)(C3)C2 [STX1672, 3,5-Dimethyl-adamantane-1-carboxylic acid(2-thiophen-2-yl-ethyl)-amide]	131 to 132
CC(C)(C)C(=O)NCc1cccs1 [STX1673, 2,2-Dimethyl-N-thiophen-2-ylmethyl-propionamide]	64 to 65
CC(C)(C)C(=O)NCCc1cccs1 [STX1674, 2,2-Dimethyl-N-(2-thiophen-2-yl-ethyl)-propionamide]	79 to 80
O=C(NCCc1cccs1)C12CC3CC(CC(O)(C3)C1)C2 [STX1676, 3-Hydroxy-adamantane-1-carboxylic acid(2-thiophen-2-yl-ethyl)-amide]	118 to 119
O=C(COCc1cccs1)C12CC3CC(CC(C3)C1)C2 [STX1692, 1-Adamantan-1-yl-2-(thiophen-2-ylmethoxy)-ethanone]	57.2 to 58.3
O=C(NCCc1cccs1)[C@H]1CC2C=CC1C2 (stereo partly drawn) [STX1707, Bicyclo[2.2.1]hept-5-ene-2-carboxylic acid(2-thiophen-2-yl-ethyl)-amide (exo)]	71 to 72
O=C(NCCc1cccs1)[C@@H]1CC2C=CC1C2 (stereo partly drawn) [STX1708, Bicyclo[2.2.1]hept-5-ene-2-carboxylic acid(2-thiophen-2-yl-ethyl)-amide (endo)]	122 to 124
CN(Cc1cccs1)C(=O)[C@H]1CC2C=CC1C2 (stereo partly drawn) [STX1709, Bicyclo[2.2.1]hept-5-ene-2-carboxylic acid methyl-thiophen-2-ylmethyl-amide (exo)]	74 to 75
